The text below walks through data of paper PMC8231400, “Synthesis, biological evaluation and molecular docking investigation of new sulphonamide derivatives bearing naphthalene moiety as potent tubulin polymerisation inhibitors” (Journal of Enzyme Inhibition and Medicinal Chemistry, 2021).

Data set [1] concerns MCF-7 human breast cancer cells. Put plainly: In vitro antiproliferative assay (CCK-8), MCF-7. It is filed as cell-based. The conditions noted are these: CCK-8, 48 h, mean of three experiments. On the procedure: (§1) In vitro antiproliferative assay 179 Human breast cancer cell line (MCF -7) and human non-small cell lung 180 carcinoma cell line (A549) were used to determine the antiproliferative of 181 the test compounds by CCK -8 assay. The cells were cultured in RPMI 182 media with 10% fetal bovine serum at 37 °C and 5% CO2 in a humidify 183 environment. In a word, cells were seeded in 96 -well plates 184 (1×10^5 cells/well) and cultured for overnight. […] Finally, 186 cell viability was determined by the CCK -8 method. 187 1.3. […] 190 EGTA) with 1 mM GTP and 5% glycerol. Then the plate was 191 immediately transferred to the spectrophotometer and microtubule 192 polymerization was monitored under 340 nm at 37 °C every 1 min over 193 20 min. […] 196 then the cells were treated with different concentrations of compound 5c 7

Data set [2] deals with A549 human non-small cell lung carcinoma cells. Put plainly: In vitro antiproliferative assay (CCK-8), A549. It is filed as cell-based. The following applies: CCK-8, 48 h, mean of three experiments. The procedure: as §1
Data set [3] in a line: Cytotoxicity against human normal liver cell line. The data set is classed as cell-based. The following applies: LO2 normal liver cells.
The subject of the next data set is tubulin. Put plainly: In vitro tubulin polymerisation inhibitory assay (absorbance 340 nm). It is filed as biochemical. The conditions noted are these: 37 °C, 20 min, read-out: IC50 tubulin polymerisation inhibition. The procedure: In vitro antiproliferative assay 179 Human breast cancer cell line (MCF -7) and human non-small cell lung 180 carcinoma cell line (A549) were used to determine the antiproliferative of 181 the test compounds by CCK -8 assay. The cells were cultured in RPMI 182 media with 10% fetal bovine serum at 37 °C and 5% CO2 in a humidify 183 environment. In a word, cells were seeded in 96 -well plates 184 (1×10^5 cells/well) and cultured for overnight. […] Finally, 186 cell viability was determined by the CCK -8 method. 187 1.3. […] 190 EGTA) with 1 mM GTP and 5% glycerol. Then the plate was 191 immediately transferred to the spectrophotometer and microtubule 192 polymerization was monitored under 340 nm at 37 °C every 1 min over 193 20 min.

Data set [4] concerns MCF-7 cancer cells. Nature of the data set: Cell cycle assay by flow cytometry (PI). It is filed as cell-based, human. The conditions noted are these: 24 h. The procedure: Due to microtubules play an important role in eukaryotic cell division, tubulin polymerisation inhibitors can disrupt regulated cell cycle distribution and block the cell cycle in G2/M phase [21]^,[29]. Therefore, the effect of compound 5c on the cell cycle of MCF-7 cancer cells was evaluated by using flow cytometry. […] 172 51.01, 56.22, 60.63, 107.33, 125.00, 125.21, 125.24, 127.40, 128.17, […] HRMS (ESI) calcd for [M+Na] + 175 C26H24N2NaO7S+: 531.1196 found 531.1162. Elemental analysis for 176 C26H24N2O7S: C, 61.41; H, 4.76; N, 5.51; S, 6.30 found C, 61.52; H, 177 4.702; N, 5.21; S, 6.100. […] In vitro antiproliferative assay 179 Human breast cancer cell line (MCF -7) and human non-small cell lung 180 carcinoma cell line (A549) were used to determine the antiproliferative of 181 the test compounds by CCK -8 assay. The cells were cultured in RPMI 182 media with 10% fetal bovine serum at 37 °C and 5% CO2 in a humidify 183 environment. In a word, cells were seeded in 96 -well plates 184 (1×10^5 cells/well) and cultured for overnight. After incubation, the cells 185 were treated with test compounds and positive control for 48 h. Finally, 186 cell viability was determined by the CCK -8 method. 187 1.3. In vitro tubulin polymerization inhibitory assay 188 Tubulin protein was mixed with different concentrations of compound 5c […] 190 EGTA) with 1 mM GTP and 5% glycerol. Then the plate was 191 immediately transferred to the spectrophotometer and microtubule 192 polymerization was monitored under 340 nm at 37 °C every 1 min over 193 20 min. […] Cell cycle assay 195 MCF-7 cells were seeded into 6-well plates and incubated for 24 h, and 196 then the cells were treated with different concentrations of compound 5c 7 page 8: 197 for 24 h. After incubation, the cells were harvested by centrifugation, and 198 fixed in ice-cold 70% ethanol overnight. After removed the ethanol, the 199 cells were incubated with RNase and propidium iodide. Finally, the 200 samples were analyzed by flow cytometry. 201 1.5. Cell apoptosis assay […] 203 then the cells were treated with different concentrations of compound 5c 204 for 24 h. Subsequently, the cells were incubated with Annexin-V/FITC 205 binding buffer and PI staining solution at room temperature. Finally, the 206 stained cells were analyzed using flow cytometry. 207 1.6. Molecular docking 208 Molecular docking studies were performed to investigate the binding […] The 210 three-dimensional (3D) coordinate of tubulin (PDB ID: 1SA0) was 211 downloaded from Protein Data Bank (www.rcsb.org). The 3D structure of 212 the compounds was obtained by ChemBioDraw Ultra 14.0 and 213 ChemBio3D Ultra 14.0 softwares. The AutoDockTools 1.5.6 package was 214 employed to generate the docking input files. The search grid of tubulin 215 was identified as center_x: 118.921, center_y: 89.718, and center_z: 216 5.932 with dimensions size_x: 15, size_y: 15, and size_z: 15. The value 217 of exhaustiveness was set to 20. For Vina docking, the default parameters 218 were used if it was not mentioned. The best-scoring pose as judged by the 219 Vina docking score was chosen and visually analyzed using PyMoL 1.7.6 220 software (www.pymol.org). 221 1.7 Molecular dynamics 222 The Amber 12 1-3 and AmberTools 13 programs were used for MD 223 simulations of the selected docked pose. MBPPS was first prepared by 224 ACPYPE 4, a tool based on ANTECHAMBER 5, 6 for generating 8
(In general: In flow cytometry, cells or beads pass a laser one at a time.)

Data set [5] relates to MCF-7 cancer cells. Put plainly: Annexin V-FITC/PI cell apoptosis assay. It is filed as cell-based, human. Set-up: Q1 quadrant / Q2 quadrant (upper right, late apoptotic cells) / Q4 quadrant / Q3 quadrant (lower right, early apoptotic cells): unit not given here. The following applies: 24 h. The procedure:
Since many literatures have reported that tubulin polymerisation inhibitors are able to induce cellular apoptosis [22]^,[30], the Annexin V-FITC/PI assay was carried out to examine the influence of compound 5c on cell apoptosis in MCF-7 cancer cells. […]
201 1.5. Cell apoptosis assay
203 then the cells were treated with different concentrations of compound 5c
204 for 24 h. Subsequently, the cells were incubated with Annexin-V/FITC
205 binding buffer and PI staining solution at room temperature. Finally, the
206 stained cells were analyzed using flow cytometry.
207 1.6. […]

Turning to `COc1ccc(CN(c2cc(OC)c(OC)c(OC)c2)S(=O)(=O)c2ccc3ccccc3c2)cc1` [5d], the IC50 (usually the point on the concentration scale where inhibition reaches its midpoint) in data set [1] (Homo sapiens, MCF7) is 5.72 ± 0.18 µM; in data set [2] (Homo sapiens, A549), more than 30 µM.
On to `COc1ccc(CN(c2cc(OC)c(OC)c(OC)c2)S(=O)(=O)c2ccccc2)cc1` [5b], for which the IC50 in data set [1] (Homo sapiens, MCF7) is more than 30 µM; in data set [2] (Homo sapiens, A549) it was more than 30 µM.
Regarding `COc1cccc(CN(c2cc(OC)c(OC)c(OC)c2)S(=O)(=O)c2cccc3ccccc23)c1` [8a], the half-maximal inhibitory concentration (IC50) was 20 ± 0.71 µM in data set [1] (Homo sapiens, MCF7) and more than 30 µM in data set [2] (Homo sapiens, A549).
In the case of `COc1cc(N(Cc2ccc(Cl)cc2)S(=O)(=O)c2cccc3ccccc23)cc(OC)c1OC` [8e], the IC50 was 15.6 ± 0.34 µM in data set [1] (Homo sapiens, MCF7) and 14.4 ± 0.8 µM in data set [2] (Homo sapiens, A549).
The corresponding values for `COc1ccc(CN(c2cc(OC)c(OC)c(OC)c2)S(=O)(=O)c2ccc(OC)cc2)cc1` [5e] are 0.87 ± 0.05 µM and 0.62 ± 0.04 µM.
As to `N.N.[Cl][Pt][Cl]` [Cisplatin, reference compound], the IC50 in data set [1] worked out at 11.2 ± 0.75 µM; in data set [2], 4.92 ± 0.46 µM.
With `COc1cc(N(Cc2ccc(Br)cc2)S(=O)(=O)c2cccc3ccccc23)cc(OC)c1OC` [8d], the IC50 is 8.02 ± 0.58 µM in data set [1] (Homo sapiens, MCF7) and more than 30 µM in data set [2] (Homo sapiens, A549).
On to `COc1cc(N(Cc2cccc(Br)c2)S(=O)(=O)c2cccc3ccccc23)cc(OC)c1OC` [8f], for which the IC50 is more than 30 µM in data set [1] (Homo sapiens, MCF7) and more than 30 µM in data set [2] (Homo sapiens, A549).
Regarding `COc1ccc(CN(c2cc(OC)c(OC)c(OC)c2)S(=O)(=O)c2cccc3ccccc23)cc1` [5c], the IC50 in data set [1] (Homo sapiens, MCF7) came to 0.51 ± 0.03 µM; in data set [2] (Homo sapiens, A549) it was 0.33 ± 0.01 µM; in data set [3], 12.7 ± 3.26 µM; in the data set on tubulin it was 2.8 µM. For the same compound, the G1 population in the data set with MCF-7 cancer cells [4] (MCF-7, 0.125 μM) amounted to 44.63%; in the data set on MCF-7 cancer cells [4] (MCF-7, 0.25 μM) it was 6.61%; with MCF-7 cancer cells [4] (MCF-7, 0.50 μM), 6.89%. Further, the G2/M population in the data set on MCF-7 cancer cells [4] (MCF-7, 0.125 μM) is reported as 30.77%; with MCF-7 cancer cells [4] (MCF-7, 0.25 μM) it was 57.50%; with MCF-7 cancer cells [4] (MCF-7, 0.5 µM), 82.22%. Besides, the S population in the data set on MCF-7 cancer cells [4] (MCF-7, 0.125 μM) was found to be 24.59%; in the data set with MCF-7 cancer cells [4] (MCF-7, 0.25 μM), 35.89%; in the data set on MCF-7 cancer cells [4] (MCF-7, 0.50 μM), 10.89%. For the same compound, the Q1 quadrant is 0.88 with MCF-7 cancer cells [5] (MCF-7, 0.125 μM); 0.77 with MCF-7 cancer cells [5] (MCF-7, 0.25 μM); 0.58 with MCF-7 cancer cells [5] (MCF-7, 0.50 μM). The “Q2 quadrant (upper right, late apoptotic cells)” value is recorded as 11.3 with MCF-7 cancer cells [5] (MCF-7, 0.125 μM); 12.6 in the data set on MCF-7 cancer cells [5] (MCF-7, 0.25 μM); 17.7 in the data set on MCF-7 cancer cells [5] (MCF-7, 0.50 μM). Further, the “Q3 quadrant (lower right, early apoptotic cells)” value with MCF-7 cancer cells [5] (MCF-7, 0.125 μM) is reported as 7.37; in the data set with MCF-7 cancer cells [5] (MCF-7, 0.25 μM), 20.5; in the data set on MCF-7 cancer cells [5] (MCF-7, 0.50 μM) it was 32.6. Besides, the Q4 quadrant is reported as 80.4 in the data set on MCF-7 cancer cells [5] (MCF-7, 0.125 μM); 66.1 in the data set with MCF-7 cancer cells [5] (MCF-7, 0.25 μM); 49.2 with MCF-7 cancer cells [5] (MCF-7, 0.50 μM). Also, the “total numbers of early and late apoptotic cells” value with MCF-7 cancer cells [5] (MCF-7, 0.125 μM) amounted to 18.67%; in the data set on MCF-7 cancer cells [5] (MCF-7, 0.25 μM), 33.1%; in the data set with MCF-7 cancer cells [5] (MCF-7, 0.5 µM) it was 50.3%.
For the compound `COc1cc(N(Cc2ccccc2[N+](=O)[O-])S(=O)(=O)c2cccc3ccccc23)cc(OC)c1OC` [8i], the IC50 in data set [1] (Homo sapiens, MCF7) is more than 30 µM; in data set [2] (Homo sapiens, A549), 4.76 ± 0.31 µM.
Take `COc1cc(N(Cc2ccc(C)cc2)S(=O)(=O)c2cccc3ccccc23)cc(OC)c1OC` [8b]: the IC50 in data set [1] (Homo sapiens, MCF7) is 2.2 ± 0.19 µM; in data set [2] (Homo sapiens, A549), 1.29 ± 0.19 µM.
The corresponding values for `COc1ccc(/C=C\c2cc(OC)c(OC)c(OC)c2)cc1O` [CA-4, combretastatin A-4, reference compound] are 5.55 ± 0.11 µM and 0.029 ± 0.004 µM.
The corresponding values for `O=c1[nH]cc(F)c(=O)[nH]1` [5-Fu, 5-fluorouracil, reference compound] are 11.6 ± 0.6 µM and 2.75 ± 0.31 µM.
The corresponding values for `COc1cc(N(Cc2ccc(C#N)cc2)S(=O)(=O)c2cccc3ccccc23)cc(OC)c1OC` [8h] are more than 30 µM and more than 30 µM.
With `COc1cc(N(Cc2cccc(F)c2)S(=O)(=O)c2cccc3ccccc23)cc(OC)c1OC` [8c], the IC50 is more than 30 µM in data set [1] (Homo sapiens, MCF7) and more than 30 µM in data set [2] (Homo sapiens, A549).
With `COc1ccc(CN(c2cc(OC)c(OC)c(OC)c2)S(=O)(=O)c2ccc(C)cc2)cc1` [5a], the IC50 is 3.64 ± 0.25 µM in data set [1] (Homo sapiens, MCF7) and 5.34 ± 0.31 µM in data set [2] (Homo sapiens, A549).
The corresponding values for `COc1cc(N(Cc2ccc(F)cc2)S(=O)(=O)c2cccc3ccccc23)cc(OC)c1OC` [8g] are more than 30 µM and more than 30 µM.
